Reference: patent US20250101041A1, “POSITIVE ALLOSTERIC MODULATORS OF THE MUSCARINIC ACETYLCHOLINE RECEPTOR M4” (Vanderbilt University, priority 2022, published 2025)
pEC50: −log10 of the molar value.

Molecular target: T1, human mAChR M4 (Homo sapiens, UniProt P08173)
T1 construct: expressed in transfected cells; host or cells: CHO-K1 (American Type Culture Collection), stably expressing hM4 and Gqi5
T1 sequence (P08173 1-479): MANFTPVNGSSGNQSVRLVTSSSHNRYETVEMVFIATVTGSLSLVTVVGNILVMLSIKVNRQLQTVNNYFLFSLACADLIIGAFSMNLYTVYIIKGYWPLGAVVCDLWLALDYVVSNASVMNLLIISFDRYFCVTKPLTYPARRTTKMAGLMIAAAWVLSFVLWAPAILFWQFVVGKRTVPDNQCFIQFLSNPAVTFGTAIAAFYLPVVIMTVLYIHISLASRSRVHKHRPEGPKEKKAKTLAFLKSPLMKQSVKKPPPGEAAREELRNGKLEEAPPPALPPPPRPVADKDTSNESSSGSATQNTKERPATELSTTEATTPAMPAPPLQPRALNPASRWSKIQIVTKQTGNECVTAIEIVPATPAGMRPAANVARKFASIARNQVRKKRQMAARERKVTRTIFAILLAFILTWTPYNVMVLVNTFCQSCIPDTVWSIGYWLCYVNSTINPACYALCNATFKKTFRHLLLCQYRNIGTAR
Assay: mAChR M4 cell-based functional assay: calcium mobilization (Fluo-4, FDSS), potentiation of EC20 acetylcholine response in hM4-Gqi5 CHO-K1 cells
Settings: human M4; for Emax at 30 µM: CHO-K1, % ACh maximum at 30 μM; for pEC50: potentiation of EC20 acetylcholine response, calcium mobilization
Procedure, shortened: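 CHO-K1 cells stably co-expressing human M4 and chimeric Gqi5, loaded with Fluo-4 AM (50 min, 37 °C). Compounds in 11-point 1:3 series added first; EC20 acetylcholine added at 144 s and again at 230 s. Calcium read on FDSS at 1 Hz; EC50 and Emax from four-parameter logistic fit of potentiated EC20 response.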

Row | Compound | Emax at 30 µM | pEC50
1 | COCc1cc(=O)n2nc(N3CCc4ncc(-c5ccc(C)nc5)cc4C3)c(C)cc2n1 [Compound 1-314, 2-(methoxymethyl)-8-methyl-7-(3-(6-methylpyridin-3-yl)-7,8-dihydro-1,6-naphthyridin-6(5H)-yl)-4H-pyrimido[1,2-b]pyridazin-4-one] | 96% | 6.96
2 | Cc1cc(=O)n2nc(N3CCc4ncc(-c5ccccc5C5CC5)cc4C3)c(C)cc2n1 [Compound 1-231, 7-(3-(2-cyclopropylphenyl)-7,8-dihydro-1,6-naphthyridin-6(5H)-yl)-2,8-dimethyl-4H-pyrimido[1,2-b]pyridazin-4-one] | 56% | 6.07
3 | Cc1ccncc1-c1cnc2c(c1)CN(c1nn3c(=O)cc(C(F)F)nc3c(C)c1C)CC2 [Compound 1-161, 2-(difluoromethyl)-8,9-dimethyl-7-(3-(4-methylpyridin-3-yl)-7,8-dihydro-1,6-naphthyridin-6(5H)-yl)-4H-pyrimido[1,2-b]pyridazin-4-one] | 76% | 7.04
4 | Cc1cc(=O)n2nc(N3CCc4ncc(-c5cnc6ccccc6c5)cc4C3)c(C)c(C)c2n1 [Compound 1-120, 2,8,9-trimethyl-7-(3-(quinolin-3-yl)-7,8-dihydro-1,6-naphthyridin-6(5H)-yl)-4H-pyrimido[1,2-b]pyridazin-4-one] | 65% | 6.13
5 | COCc1cc(=O)n2nc(N3CCc4ncc(-c5cc(F)ccc5C)cc4C3)c(C)cc2n1 [Compound 1-332, 7-(3-(5-fluoro-2-methylphenyl)-7,8-dihydro-1,6-naphthyridin-6(5H)-yl)-2-(methoxymethyl)-8-methyl-4H-pyrimido[1,2-b] pyridazin-4-one] | 67% | 6.61
6 | Cc1cc(=O)n2nc(N3CCc4ncc(-c5ccc(N(C)C)nc5)cc4C3)c(C)c(C)c2n1 [Compound 1-121, 7-(3-(6-(dimethylamino)pyridin-3-yl)-7,8-dihydro-1,6-naphthyridin-6(5H)-yl)-2,8,9-trimethyl-4H-pyrimido[1,2-b]pyridazin-4-one] | 83% | 6.14
7 | COc1cc(-c2cnc3c(c2)CN(c2nn4c(=O)ccnc4cc2C)CC3)ccc1F [Compound 1-51, 7-(3-(4-fluoro-3-methoxyphenyl)-7,8-dihydro-1,6-naphthyridin-6(5H)-yl)-8-methyl-4H-pyrimido[1,2-b]pyridazin-4-one] | 85% | 6.53
8 | Cc1cc(F)ccc1-c1cnc2c(c1)CN(c1nn3c(=O)ccnc3c(C)c1C)CC2 [Compound 1-264, 7-(3-(4-fluoro-2-methylphenyl)-7,8-dihydro-1,6-naphthyridin-6(5H)-yl)-8,9-dimethyl-4H-pyrimido[1,2-b]pyridazin-4-one] | 98% | 6.65
9 | Cc1ccncc1-c1cnc2c(c1)CN(c1nn3c(=O)ccnc3cc1C)CC2 [Compound 1-403, 8-methyl-7-(3-(4-methylpyridin-3-yl)-7,8-dihydro-1,6-naphthyridin-6(5H)-yl)-4H-pyrimido[1,2-b] pyridazin-4-one] | 86% | 6.95
10 | CCc1cnc2cc(C)c(N3CCc4ncc(C(F)(F)F)cc4C3)nn2c1=O [Compound 1-24, 3-Ethyl-8-methyl-7-(3-(trifluoromethyl)-7,8-dihydro-1,6-naphthyridin-6(5H)-yl)-4H-pyrimido[1,2-b]pyridazin-4-one] | 75% | 6.51
11 | Cc1cc2nccc(=O)n2nc1N1CCc2ncc(-c3ccc(OC(F)F)nc3)cc2C1 [Compound 1-315, 7-(3-(6-(difluoromethoxy)pyridin-3-yl)-7,8-dihydro-1,6-naphthyridin-6(5H)-yl)-8-methyl-4H-pyrimido[1,2-b]pyridazin-4-one] | 71% | 6.35
12 | COc1ccc(-c2cnc3c(c2)CN(c2nn4c(=O)cc(C)nc4cc2C)CC3)cn1 [Compound 1-71, 7-(3-(6-methoxypyridin-3-yl)-7,8-dihydro-1,6-naphthyridin-6(5H)-yl)-2,8-dimethyl-4H-pyrimido[1,2-b]pyridazin-4-one] | 90% | 6.84
13 | Cc1cc(=O)n2nc(N3CCc4ncc(-c5ccc(C)o5)cc4C3)c(C)c(C)c2n1 [Compound 1-305, 2,8,9-trimethyl-7-(3-(5-methylfuran-2-yl)-7,8-dihydro-1,6-naphthyridin-6(5H)-yl)-4H-pyrimido[1,2-b] pyridazin-4-one] | 88% | 6.50
14 | Cc1cc2nccc(=O)n2nc1N1CCc2ncc(-c3cnc(F)c(F)c3)cc2C1 [Compound 1-331, 7-(3-(5,6-difluoropyridin-3-yl)-7,8-dihydro-1,6-naphthyridin-6(5H)-yl)-8-methyl-4H-pyrimido [1,2-b]pyridazin-4-one] | 53% | 5.90
15 | COCc1cc(=O)n2nc(N3CCc4ncc(C(F)(F)F)cc4C3)c(C)c(C)c2n1 [Compound 1-109, 2-(Methoxymethyl)-8,9-dimethyl-7-(3-(trifluoromethyl)-7,8-dihydro-1,6-naphthyridin-6(5H)-yl)-4H-pyrimido[1,2-b]pyridazin-4-one] | 79% | 7.22
16 | Cc1ccc(-c2cnc3c(c2)CN(c2nn4c(=O)ccnc4c(C4CC4)c2C)CC3)cn1 [Compound 1-114, 9-cyclopropyl-8-methyl-7-(3-(6-methylpyridin-3-yl)-7,8-dihydro-1,6-naphthyridin-6(5H)-yl)-4H-pyrimido[1,2-b]pyridazin-4-one] | 73% | 6.21
17 | Cc1c(N2CCc3ncc(-c4cnccc4Cl)cc3C2)nn2c(=O)ccnc2c1C [Compound 1-145, 7-(3-(4-chloropyridin-3-yl)-7,8-dihydro-1,6-naphthyridin-6(5H)-yl)-8,9-dimethyl-4H-pyrimido[1,2-b]pyridazin-4-one] | 88% | 6.91
18 | COc1nccc(-c2cnc3c(c2)CN(c2nn4c(=O)ccnc4cc2C)CC3)c1C [Compound 1-427, 7-(3-(2-methoxy-3-methylpyridin-4-yl)-7,8-dihydro-1,6-naphthyridin-6(5H)-yl)-8-methyl-4H-pyrimido[1,2-b]pyridazin-4-one] | 78% | 5.82

The next lines start with the values.

Row | Emax at 30 µM | pEC50 | Compound
19 | 97% | 7.22 | Cc1cc2n(n1)CCCN2c1cnc2c(c1)CN(c1nn3c(=O)ccnc3cc1C)CC2 [Compound 2-5, 8-methyl-7-(3-(2-methyl-6,7-dihydropyrazolo[1,5-a]pyrimidin-4(5H)-yl)-7,8-dihydro-1,6-naphthyridin-6(5H)-yl)-4H-pyrimido[1,2-b]pyridazin-4-one]
20 | 96% | 7.80 | [2H]C1([2H])Cc2ncc(Nc3cc(C)ncc3F)cc2C([2H])([2H])N1c1nn2c(=O)ccnc2cc1C [Compound 2-162, 7-(3-((5-fluoro-2-methylpyridin-4-yl)amino)-7,8-dihydro-1,6-naphthyridin-6(5H)-yl-5,5,7,7-d4)-8-methyl-4H-pyrimido[1,2-b]pyridazin-4-one]
21 | 86% | 6.73 | Cc1cc2nccc(=O)n2nc1N1CCc2ncc(N3CCc4ncccc43)cc2C1 [Compound 2-58, 7-(3-(2,3-dihydro-1H-pyrrolo[3,2-b]pyridin-1-yl)-7,8-dihydro-1,6-naphthyridin-6(5H)-yl)-8-methyl-4H-pyrimido[1,2-b]pyridazin-4-one]
22 | 84% | 6.29 | Cc1cc2nccc(=O)n2nc1N1CCc2ncc(N3CCOC(c4cccc(F)c4)C3)cc2C1 (stereo not shown) [Compound 2-61, 7-(3-(2-(3-fluorophenyl)morpholino)-7,8-dihydro-1,6-naphthyridin-6(5H)-yl)-8-methyl-4H-pyrimido[1,2-b]pyridazin-4-one]
23 | 94% | 7.07 | COc1ccc(F)c(Nc2cnc3c(c2)CN(c2nn4c(=O)ccnc4cc2C)CC3)c1 [Compound 2-70, 7-(3-((2-fluoro-5-methoxyphenyl)amino)-7,8-dihydro-1,6-naphthyridin-6(5/)-yl)-8-methyl-4H-pyrimido[1,2-b]pyridazin-4-one]
24 | 87% | 7.43 | Cc1cc(=O)n2nc(N3CCc4ncc(N5CCCn6nc(C)cc65)cc4C3)c(C)cc2n1 [Compound 2-21, 2,8-dimethyl-7-(3-(2-methyl-6,7-dihydropyrazolo[1,5-a]pyrimidin-4(5H)-yl)-7,8-dihydro-1,6-naphthyridin-6(5H)-yl)-4H-pyrimido[1,2-b]pyridazin-4-one]
25 | 88% | 7.72 | Cc1cc2nccc(=O)n2nc1N1CCc2ncc(Nc3cc(F)cc(F)c3)cc2C1 [Compound 2-105, 7-(3-((3,5-difluorophenyl)amino)-7,8-dihydro-1,6-naphthyridin-6(5H)-yl)-8-methyl-4H-pyrimido[1,2-b]pyridazin-4-one]
26 | 106% | 6.76 | Cc1cc2nccc(=O)n2nc1N1CCc2ncc(Nc3cccnc3)cc2C1 [Compound 2-88, 8-methyl-7-(3-(pyridin-3-ylamino)-7,8-dihydro-1,6-naphthyridin-6(5H)-yl)-4H-pyrimido[1,2-b]pyridazin-4-one]
